From ChEMBL document CHEMBL4673296 (J Med Chem, 2020)
Calls of active or inactive are those of the source. The rule behind the calls is not given here.

Experiments:
[1] = AUC (0 to t) in C57BL/6J mouse at 30 mg/kg, po measured upto 24 hrs by LC-MS/MS analysis; format: ADME, organism-based; parameters: dose 30 mg/kg, time <=24; conditions: in vivo
[2] = Efflux ratio of apparent permeability from basolateral side to apical side over apical side to basolateral side in human Caco2 cells; format: ADME, cell-based; conditions: Caco-2
[3] = test system: MDA-MB-468; assay: Induction of apoptosis in human MDA-MB-468 cells assessed as late apoptotic cells at 10 uM measured after 18 hrs in low-glucose, amino acid-free Earles balanced salt solution (EBSS) media by AnnexinV/7-AAD staining based flow cytometric analysis (reference value: 7.6%); format: functional
[4] = test system: MDA-MB-468; assay: Synergistic cytotoxicity against human MDA-MB-468 cells a t0.021 to 15 uM in presence of PARP inhibitor olaparib measured after 72 hrs by Celltiter-Glo assay; format: functional, cell-based; conditions: dose 0.021-15 µM
[5] = Tmax in C57BL/6J mouse at 30 mg/kg, po measured upto 24 hrs by LC-MS/MS analysis; format: ADME, organism-based; conditions: in vivo
[6] = test system: MDA-MB-468; assay: Reduction in autophagosome accumulation in human MDA-MB-468 cells at 10 uM by transmission electron microscopic analysis; format: functional, cell-based
[7] = test system: MDA-MB-468; assay: Induction of apoptosis in human MDA-MB-468 cells assessed as necrotic cells at 10 uM measured after 18 hrs in low-glucose, amino acid-free Earles balanced salt solution (EBSS) media by AnnexinV/7-AAD staining based flow cytometric analysis (reference value: 0.1%); format: functional
[8] = test system: MDA-MB-468; assay: Induction of apoptosis in human MDA-MB-468 cells assessed as early apoptotic cells at 10 uM measured after 18 hrs in normal growth media by AnnexinV/7-AAD staining based flow cytometric analysis (reference value: 5.6%); format: functional
[9] = molecular target: T1, Serine/threonine-protein kinase ULK1 (Homo sapiens) (UniProt O75385); assay: Inhibition of Myc-tagged ULK1 (unknown origin) expressed in HEK293T cells cotransfected with wild-type Flag tagged Beclin-1 assessed as decrease in pBeclin1 Ser15 at 10 uM measured after 1 hr by Western blot analysis relative to control; format: cell-based
T1 sequence (whole entry): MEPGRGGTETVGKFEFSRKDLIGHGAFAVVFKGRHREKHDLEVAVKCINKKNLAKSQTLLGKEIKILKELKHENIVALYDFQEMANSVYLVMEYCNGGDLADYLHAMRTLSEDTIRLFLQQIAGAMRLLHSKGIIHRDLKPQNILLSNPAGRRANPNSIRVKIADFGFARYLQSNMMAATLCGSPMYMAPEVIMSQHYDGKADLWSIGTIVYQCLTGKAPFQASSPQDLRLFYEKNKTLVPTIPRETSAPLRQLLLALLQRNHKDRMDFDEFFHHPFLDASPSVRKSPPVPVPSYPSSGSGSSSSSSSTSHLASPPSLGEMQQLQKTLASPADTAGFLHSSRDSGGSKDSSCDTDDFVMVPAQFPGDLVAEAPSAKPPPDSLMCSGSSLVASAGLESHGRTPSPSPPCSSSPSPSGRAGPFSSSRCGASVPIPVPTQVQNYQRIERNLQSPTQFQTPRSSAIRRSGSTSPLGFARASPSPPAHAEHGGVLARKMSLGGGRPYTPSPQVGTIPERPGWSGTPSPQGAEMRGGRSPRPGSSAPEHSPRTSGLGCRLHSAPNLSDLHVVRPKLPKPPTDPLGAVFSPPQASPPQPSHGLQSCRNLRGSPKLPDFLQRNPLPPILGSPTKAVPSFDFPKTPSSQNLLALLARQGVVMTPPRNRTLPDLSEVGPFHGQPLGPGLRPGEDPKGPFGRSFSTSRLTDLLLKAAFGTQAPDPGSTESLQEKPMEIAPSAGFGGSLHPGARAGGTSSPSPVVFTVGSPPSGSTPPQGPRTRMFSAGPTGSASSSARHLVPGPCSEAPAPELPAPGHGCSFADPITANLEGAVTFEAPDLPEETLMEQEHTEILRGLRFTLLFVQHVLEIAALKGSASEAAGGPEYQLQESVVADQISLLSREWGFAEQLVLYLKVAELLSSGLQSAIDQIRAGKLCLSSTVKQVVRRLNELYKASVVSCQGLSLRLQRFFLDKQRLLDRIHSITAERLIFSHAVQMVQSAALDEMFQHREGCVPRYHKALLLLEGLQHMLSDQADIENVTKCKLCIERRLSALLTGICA

[10] = test system: Mus musculus; assay: Ex vivo inhibition of ULK1 in liver lysate of C57BL/6J mouse assessed as decrease in pATG13 (Ser318) levels at 10 mg/kg, po measured after 2 hrs by Western blot analysis; format: functional, organism-based
[11] = test system: MDA-MB-468; assay: Induction of apoptosis in human MDA-MB-468 cells assessed as early apoptotic cells at 10 uM measured after 18 hrs in low-glucose, amino acid-free Earles balanced salt solution (EBSS) media by AnnexinV/7-AAD staining based flow cytometric analysis (reference value: 5.6%); format: functional
[12] = test system: Mus musculus; assay: Decrease in total ATG13 level in liver lysate of C57BL/6J mouse at 10 mg/kg, po measured after 2 hrs by Western blot analysis; format: functional, organism-based
[13] = molecular target: T2, Serine/threonine-protein kinase ULK1 (Homo sapiens, UniProt O75385); assay: Inhibition of recombinant human ULK1 (1-649) expressed in Sf9 cells using myelin basic protein as substrate by ADP-glo assay; conditions: sf9
T2 sequence (O75385 whole entry): T1 sequence (whole entry)

[14] = Inhibition of starvation-induced autophagic flux in human MDA-MB-468 cells expressing tandem-labelled mCherryEGFP-LC3 chimeric protein at 10 uM measured after 18 hrs in EBSS media by flow cytometry (Rvb >90%); format: functional
[15] = test system: MDA-MB-468; assay: Induction of apoptosis in human MDA-MB-468 cells assessed as viable cells at 10 uM measured after 18 hrs in low-glucose, amino acid-free Earles balanced salt solution (EBSS) media by AnnexinV/7-AAD staining based flow cytometric analysis (reference value: 86.6%); format: functional; conditions: read-out: Activity
[16] = molecular target: T1, Serine/threonine-protein kinase ULK1 (Homo sapiens); assay: Binding affinity to recombinant human ULK1 assessed as change in melting temperature at 10 uM by thermal shift assay
[17] = Apparent permeability of the compound across basolateral side to apical side in human Caco2 cells; format: ADME, cell-based; conditions: Caco-2

SMILES: COc1ccc(Nc2ncc(C(F)(F)F)c(NC3CC3)n2)cc1OC
- AUC(0-t) at 24 h [1]: 2.3 µM·h
- efflux ratio [2]: < 2
- Activity [3]: 18.4%
- Activity [4]: Active
- Tmax [5]: 1 h
- inhibition [6]: Active
- Activity [7]: 0.1%
- Activity [8]: 28.9%
- inhibition [9]: 60%
- inhibition [10]: Active
- Activity [11]: 42.9%
- inhibition [12]: Active
- IC50 [13]: 13 nM
- inhibition at 10 µM [14]: 60%
- viability at 10 µM [15]: 38.6%
- ΔTm [16]: 8.3 °C
- Papp B→A [17]: > 10 ×10⁻⁶ cm/s
